One series concerns U2OS. Description: Cytotoxic MTS assay, U2OS. The format is cell-based. The following applies: Homo sapiens, 72 h, osteosarcoma. The text has this: (§1) Cytotoxic activity of all synthesized compounds was investigated in vitro against eight human cancer cell lines and two non-tumor fibroblasts using the standard MTS test (Table 1). The cancer cell lines were derived from T-lymphoblastic leukemia CCRF-CEM, leukemia K562 and their multiresistant counterparts expressing P-glycoprotein, MRP1 and LRP proteins (CEM-DNR, K562-TAX), solid tumors including lung (A549) and colon (HCT116, HCT116p53-/-) carcinomas, osteosarcoma cell line (U2OS), and for comparison, tests were performed on two human non-cancer fibroblast cell lines (BJ, MRC-5).
(§2) Biological assays were performed in concordance with our previous publications [[29], [58]; [60]; [61]]. All cells (if not indicated otherwise) were purchased from the American Tissue Culture Collection (ATCC). The CCRF-CEM line is derived from T lymphoblastic leukemia, evincing high chemosenzitivity, K562 represent cells from an acute myeloid leukemia patient sample with bcr-abl translocation, U2OS line is derived from osteosarcoma, HCT116 is colorectal tumor cell line and its p53 gene knock-down counterpart (HCT116p53-/-, Horizon Discovery Ltd, UK) is a model of human cancers with p53 mutation frequently associated with poor prognosis, A549 line is lung adenocarcinoma. The daunorubicin resistant subline of CCRF-CEM cells (CEM-DNR bulk) and paclitaxel resistant subline K562-TAX were selected in our laboratory by the cultivation of maternal cell lines in increasing concentrations of daunorubicine or paclitaxel, respectively. The CEM-DNR bulk cells overexpress MRP-1 and P-glycoprotein protein, while K562-TAX cells overexpress P-glycoprotein only. Both proteins belong to the family of ABC transporters and are involved in the primary and/or acquired multidrug resistance phenomenon. MRC-5 and BJ cell lines were used as a non-tumor control and represent human fibroblasts. The cells were maintained in nunc/corning 80 cm^2 plastic tissue culture flasks and cultured in cell culture medium according to ATCC or Horizon recommendations (DMEM/RPMI 1640 with 5 g/L glucose, 2 mM glutamine, 100 U/mL penicillin, […] streptomycin, 10% fetal calf serum, and NaHCO3).
(§3) MTS assay was performed at Institute of Molecular and Translational Medicine by robotic platform (HighResBiosolutions). Cell suspensions were prepared and diluted according to the particular cell type and the expected target cell density (25000–35000 cells/mL based on cell growth characteristics). Cells were added by automatic pipetor (30 μL) into 384 well microtiter plates. All tested compounds were dissolved in 100% DMSO and four-fold dilutions of the intended test concentration were added in 0.15 μL aliquots at time zero to the microtiter plate wells by the echoacustic non-contact liquid handler Echo550 (Labcyte). The experiments were performed in technical duplicates and three biological replicates at least. The cells were incubated with the tested compounds for 72 h at 37°C, in a 5% CO2 atmosphere at 100% humidity. At the end of the incubation period, the cells were assayed by using the MTS test. Aliquots (5 μL) of the MTS stock solution were pipetted into each well and incubated for additional 1–4 h. After this incubation period, the optical density (OD) was measured at 490 nm with an Envision reader (Perkin Elmer). Tumor cell survival (TCS) was calculated by using the following equation: TCS = (ODdrug-exposed well/mean ODcontrol wells) × 100%. The IC50 value, the drug concentration that is lethal to 50% of the tumor cells, was calculated from the appropriate dose-response curves in Dotmatics software.

Series [1] concerns CCRF-CEM cells. Description: pH3Ser10 antibody labeling, flow cytometry of mitotic cells. The format is cell-based, human. How it is done:
(§4) Together with the treated cells, control sample containing vehicle was harvested at the same time point after 24 h. After another 24 hours, cells were then washed with cold PBS and fixed in 70% ethanol added dropwise and stored overnight at -20°C. Afterwards, cells were washed in hypotonic citrate buffer, treated with RNAse (50 μg/mL) and stained with propidium iodide. Flow cytometer using a 488 nm single beam laser (Becton Dickinson) was used for measurement. Cell cycle was analyzed in the program ModFitLT (Verity), and apoptosis was measured in logarithmic model expressing percentage of the particles with propidium content lower than cells in G0/G1 phase (<G1) of the cell cycle. Half of the sample was used for pH3^Ser10 antibody (Sigma) labeling and subsequent flow cytometry analysis of mitotic cells.
On the technique in general: In flow cytometry, cells or beads pass a laser one at a time.

Another series concerns K562-TAX. Kind of series: Cytotoxic MTS assay, K562-TAX. The conditions noted are these: Homo sapiens, 72 h, paclitaxel resistant subline of K562. It is filed as cell-based.
Description: as §1, §2, §3
For orientation: Tetrazolium assays rely on reduction of a dye to a coloured formazan, in cell work by metabolically active cells.

A further series concerns HCT116p53-/-. Kind of series: Cytotoxic MTS assay, HCT116p53-/-. The format is cell-based. The conditions noted are these: Homo sapiens, 72 h, p53 knock-down colorectal tumor.
Description: as §1, §2, §3

The next series has as its system BJ. Description: Cytotoxic MTS assay, BJ fibroblasts. It is filed as cell-based. The following applies: Homo sapiens, 72 h, non-tumor fibroblasts.
Description: as §1, §2, §3

Another series deals with CCRF-CEM. Kind of series: Cytotoxic MTS assay, CCRF-CEM. The format is cell-based. The conditions noted are these: Homo sapiens, 72 h, T-lymphoblastic leukemia.
Description: as §1, §2, §3

In a further series the test system is K562. Description: Cytotoxic MTS assay, K562. It is filed as cell-based. The following applies: Homo sapiens, 72 h, leukemia.
Description: as §1, §2, §3

The test system of series [2] is CCRF-CEM cells. Kind of series: BrU incorporation analysis (RNA synthesis). Set-up: RNA synthesis: unit not given here. It is filed as cell-based, human. The procedure: as §4
Cells were cultured and treated as above. Before harvesting, pulse-labeling with 1 mM 5-bromouridine (BrU) for 30 min followed. The cells were then fixed in 1% buffered paraformaldehyde with 0.05% of NP-40 in room temperature for 15 min, and then stored in 4°C overnight. Before measurement, they werewashed in PBS with 1% glycin, washed in PBS again, and stained by primary anti-BrDU antibody crossreacting to BrU (Exbio) for 30 min at room temperature in the dark. After another washing step in PBS cells were stained by secondary antimouse-FITC antibody (Sigma). Following the staining, cells were washed with PBS and fixed with 1% PBS buffered paraformaldehyde with 0.05% of NP-40 for 1 hour. Cells were washed by PBS, incubated with propidium iodide (0.1 mg/mL) and RNAse A (0.5 mg/mL) for 1 h at room temperature in the dark, and finally analyzed by flow cytometry using a 488 nm single beam laser (FACS Calibur, Becton Dickinson).

The subject of another series is A549. Kind of series: Cytotoxic MTS assay, A549. The conditions noted are these: Homo sapiens, 72 h, lung adenocarcinoma. It is filed as cell-based.
Description: as §1, §2, §3

In series [3] the test system is CCRF-CEM cells. Description: BrDU incorporation analysis (DNA synthesis). More on the design: DNA synthesis: unit not given here. It is filed as cell-based, human. How it is done:
as §4
For this analysis, the same procedure of cultivation as previously was used. Before harvesting, 10 μM 5-bromo-2-deoxyuridine (BrDU), was added to the cells for puls-labeling for 30 min. Cells were fixed with ice-cold 70% ethanol and stored overnight. Before the analysis, cellswere washed with PBS, and resuspended in 2 M HCl for 30 min at room temperature to denature their DNA. Following neutralization with 0.1 M Na2B4O7 (Borax), cells were washed with PBS containing 0.5% Tween-20 and 1% BSA. Staining with primary anti-BrDU antibody (Exbio) for 30 min at room temperature in the dark followed. Cells were than washed with PBS and stained with secondary antimouse-FITC antibody (Sigma). Cells were then washed with PBS again and incubated with propidium iodide (0.1 mg/mL) and RNAse A (0.5 mg/mL) for 1 h at room temperature in the dark and afterwards analyzed by flow cytometry using a 488 nm single beam laser (FACSCalibur, Becton Dickinson).

The subject of another series is HCT116. Kind of series: Cytotoxic MTS assay, HCT116. It is filed as cell-based. The following applies: Homo sapiens, HCT-116, 72 h, colorectal tumor.
Description: as §1, §2, §3

Series [4] deals with CCRF-CEM cells. Description: Cell cycle and apoptosis analysis (propidium iodide flow cytometry). The format is cell-based, human. How it is done:
as §4

Another series deals with MRC-5. Kind of series: Cytotoxic MTS assay, MRC-5 fibroblasts. The format is cell-based. The conditions noted are these: Homo sapiens, MRC5, 72 h, non-tumor fibroblasts.
Description: as §1, §2, §3

A further series relates to CEM-DNR. Kind of series: Cytotoxic MTS assay, CEM-DNR. It is filed as cell-based. The following applies: Homo sapiens, 72 h, daunorubicin resistant subline of CCRF-CEM.
Description: as §1, §2, §3

The source of these data is paper PMC5291411, “Cytotoxic conjugates of betulinic acid and substituted triazoles prepared by Huisgen Cycloaddition from 30-azidoderivatives” (PLoS ONE, 2017).

One may read the IC50 as the midpoint of a concentration-inhibition curve. By melting point is commonly meant the temperature, or range, at which the solid turns liquid.

Turning to `C=C(CBr)[C@@H]1CC[C@]2(C(=O)O)CC[C@]3(C)C(CCC4[C@@]5(C)CC[C@H](OC(C)=O)C(C)(C)C5CC[C@]43C)C12` (stereo partly drawn) [Compound 4, 3β-O-Acetyl-30-bromobetulinic acid], the IC50 amounted to 21.2 µM in the series on U2OS; 15.8 µM with K562-TAX; 14.1 µM in the series with HCT116p53-/-; 31.7 µM with BJ; 5.7 µM in the series with CCRF-CEM; 21.7 µM in the series with K562. For the same compound, the IC50 stood at 13.2 µM with A549, 15.9 µM in the series with HCT116, 24.2 µM in the series with MRC-5 and 15.3 µM with CEM-DNR. Besides, the entries for the “pH3Ser10 (%)” value in the series on CCRF-CEM cells [1] (1 × IC50) and with CCRF-CEM cells [1] (5 × IC50) were 1.34% and 2.35%, respectively. Further, in the series on CCRF-CEM cells [2], the “effect on RNA synthesis (in words)” value is “inhibiting”. For the same compound, the RNA synthesis in the series on CCRF-CEM cells [2] (1 × IC50, BrU incorporation) was 56.3; in the series with CCRF-CEM cells [2] (5 × IC50, BrU incorporation) it was 24.8. In the series on CCRF-CEM cells [3], the “effect on DNA synthesis (in words)” value was “inhibiting”. The DNA synthesis with CCRF-CEM cells [3] (1 × IC50, BrDU incorporation) was found to be 38.6; in the series with CCRF-CEM cells [3] (5 × IC50, BrDU incorporation), 5.80. In addition, the “G0/G1 (%)” value turned out to be 47.3% in the series on CCRF-CEM cells [4] (1 × IC50) and 33.7% in the series with CCRF-CEM cells [4] (5 × IC50). The “G2/M (%)” value was determined as 16.8% with CCRF-CEM cells [4] (1 × IC50) and 23.2% in the series on CCRF-CEM cells [4] (5 × IC50). The “S (%)” value with CCRF-CEM cells [4] (1 × IC50) came to 35.9%; in the series with CCRF-CEM cells [4] (5 × IC50), 43.0%. In addition, the “Sub G1 (%)” value with CCRF-CEM cells [4] (1 × IC50) worked out at 9.4%; in the series on CCRF-CEM cells [4] (5 × IC50), 39.7%.
With `C=C(CBr)[C@@H]1CC[C@]2(C(=O)O)CC[C@]3(C)C(CCC4[C@@]5(C)CC[C@H](O[Si](c6ccccc6)(c6ccccc6)c6ccccc6)C(C)(C)C5CC[C@]43C)C12` (stereo partly drawn) [Compound 5, 3β-O-Triphenylsilyl-30-bromobetulinic acid], the melting point is 208 to 210 °C. Moreover, the IC50 in the series with U2OS came to 27.9 µM. Besides, in the series on K562-TAX, it took 12.2 µM to reach half-maximal inhibition (IC50). In addition, the IC50 in the series on HCT116p53-/- amounted to 31.1 µM. Further, the IC50 in the series with BJ is greater than 50 µM. Besides, the IC50 in the series with CCRF-CEM is greater than 50 µM. The same compound returned an IC50 with K562 greater than 50 µM. In addition, the IC50 with A549 was greater than 50 µM. This compound displayed an IC50 in the series on HCT116 of 35.6 µM. For the same compound, the IC50 with MRC-5 was greater than 50 µM. Also, the IC50 with CEM-DNR amounted to 13.2 µM.
For the compound `C=C(Cn1cc(-c2ccccc2C=O)nn1)[C@@H]1CC[C@]2(C(=O)O)CC[C@]3(C)C(CCC4[C@@]5(C)CC[C@H](O)C(C)(C)C5CC[C@]43C)C12` (some centres unmarked) [Compound 11b], the IC50 in the series with U2OS is greater than 50 µM; with K562-TAX, 13.7 µM; in the series on HCT116p53-/- it was 26.9 µM; in the series with BJ, greater than 50 µM; in the series on CCRF-CEM, 8.5 µM; with K562, greater than 50 µM. The IC50 with A549 is greater than 50 µM; with HCT116, 26.3 µM; in the series on MRC-5 it was greater than 50 µM; with CEM-DNR, 11.5 µM. Besides, the “pH3Ser10 (%)” value is recorded as 0.88% in the series with CCRF-CEM cells [1] (1 × IC50) and 1.19% with CCRF-CEM cells [1] (5 × IC50). In the series on CCRF-CEM cells [2], the “effect on RNA synthesis (in words)” value is recorded as “inhibiting”. Moreover, the RNA synthesis with CCRF-CEM cells [2] (1 × IC50, BrU incorporation) is 48.3; with CCRF-CEM cells [2] (5 × IC50, BrU incorporation), 38.1. Moreover, the “effect on DNA synthesis (in words)” value in the series on CCRF-CEM cells [3] is listed as “inhibiting”. The DNA synthesis turned out to be 20.0 with CCRF-CEM cells [3] (1 × IC50, BrDU incorporation) and 6.40 with CCRF-CEM cells [3] (5 × IC50, BrDU incorporation). For the same compound, the “G0/G1 (%)” value in the series on CCRF-CEM cells [4] (1 × IC50) was determined as 59.0%; in the series on CCRF-CEM cells [4] (5 × IC50) it was 45.5%. For the same compound, the “G2/M (%)” value amounted to 15.7% in the series with CCRF-CEM cells [4] (1 × IC50) and 19.1% in the series with CCRF-CEM cells [4] (5 × IC50). In addition, the “S (%)” value in the series with CCRF-CEM cells [4] (1 × IC50) was found to be 25.3%; with CCRF-CEM cells [4] (5 × IC50), 35.4%. For the same compound, the “Sub G1 (%)” value with CCRF-CEM cells [4] (5 × IC50) amounted to 65.6%.
